This is an account of results in publication PMC9065877, “Safety, tolerability and pharmacokinetics of the oligomer modulator anle138b with exposure levels sufficient for therapeutic efficacy in a murine Parkinson model: A randomised, double-blind, placebo-controlled phase 1a trial” (EBioMedicine, 2022).

This test deals with striatal dopamine (DA) release in MI2 mice. Description: Dose-response study in MI2 mice: striatal dopamine release by in vivo microdialysis. More on the design: species or system mouse. To be noted: up to 300 mg/kg/day in food. As to the method: An anle138b pharmacodynamics dose-response study was performed using MI2 mice, a novel model of α-synucleinopathy characterized by a progressive PD-like phenotype including accumulation of α-synuclein inclusions in nigrostriatal dopaminergic neurons and impairment of striatal dopamine (DA) release (Wegrzynowicz et al., 2019). The research was carried out in accordance with the Animals (Scientific Procedures) Act 1986 Amendment Regulations 2012 after the review by the University of Cambridge Animal Welfare and Ethical Review Body (AWERB), under the project license 70/8383. Anle138b treatment was commenced at 6 months, an age when impairment of striatal DA release is already observed in MI2 mice, but prior to nigral neuronal loss. […] After 2 months of treatment (at the age of 8 months), striatal release of DA was analysed using in vivo microdialysis, as previously reported (Wegrzynowicz et al., 2019). […] DA levels in the microdialysates were measured by high performance liquid chromatography with electrochemical detection, as described in (Garcia-Reitböck et al., 2010). […] The obtained chromatograms were analysed with Chromeleon Chromatography Data System (V 6·2; Dionex). […]

Regarding `Brc1cccc(-c2cc(-c3ccc4c(c3)OCO4)n[nH]2)c1` [anle138b, 3-(1,3-benzodioxol-5-yl)-5-(3-bromophenyl)-1H-pyrazole], the “Effect on striatal dopamine release at higher doses” value is on record as “stabile maximal effects were observed”.
